Measured values reported in patent US11590139B2, “Substituted aminopurine compounds, compositions thereof, and methods of treatment therewith” (Signal Pharmaceuticals, LLC, priority 2014, dated 2023).

test system: Lox-IMVI melanoma cell line; assay: Lox-IMVI anti-proliferative assay (growth inhibition, Cell Titer-Glo); type: cell-based, human; settings: Homo sapiens; IC50 activity level in the cell-based Lox-IMVI anti-proliferative assay; read-out: Activity
Outline: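 Viability read by ATP luminescence (Cell Titer-Glo) at t0 and after 72 h at 37 °C, 5% CO2, with normalisation to DMSO-treated cells. Compound tested at 0.5 nM–10 μM in 3-fold, 10-point series (0.2% DMSO final) on Lox-IMVI in RPMI+10% FBS; IC50 by 4-parameter sigmoidal fit.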

SMILES | IC50 [nM]
NC(=O)[C@H]1CC[C@@H](n2c(Nc3cc(F)c(Cl)cc3F)nc3cnc(NC4CCOCC4)nc32)CC1 [Example 70, (1s,4s)-4-(8-(4-chloro-2,5-difluorophenylamino)-2-(tetrahydro-2H-pyran-4-ylamino)-9H-purin-9-yl)cyclohexanecarboxamide] | 500 to 1000
CC(C)(C)OC(=O)N1CCC[C@@H](Nc2ncc3nc(Nc4c(F)cc(F)cc4Cl)n([C@H]4CC[C@@H](C(N)=O)CC4)c3n2)C1 [Example 161, (R)-tert-butyl 3-(9-((1s,4S)-4-carbamoylcyclohexyl)-8-(2-chloro-4,6-fluorophenylamino)-9H-purin-2-ylamino)piperidine-1-carboxylate] | > 1000
CC(C)Nc1ncc2nc(Nc3c(F)cc(F)cc3Cl)n([C@H]3CC[C@@H](C(N)=O)CC3)c2n1 [Example 125, (1s,4s)-4-(8-(2-chloro-4,6-difluorophenylamino)-2-(isopropylamino)-9H-purin-9-yl)cyclohexanecarboxamide] | 500 to 1000
C[C@@H]1CC[C@@H](Nc2ncc3nc(Nc4c(F)cc(F)cc4Cl)n([C@H]4CC[C@@H](C(N)=O)CC4)c3n2)C[C@H]1O [Example 344, (1S,4s)-4-(8-(2-chloro-4,6-difluorophenylamino)-2-((1R,3R,4R)-3-hydroxy-4-methylcyclohexylamino)-9H-purin-9-yl)cyclohexanecarboxamide] | > 1000
NC(=O)[C@H]1CC[C@@H](n2c(Nc3c(F)cc(F)cc3F)nc3cnc(N[C@@H]4CC[C@@H](O)C4)nc32)CC1 [Example 207, (1S,4s)-4-(2-((1R,3R)-3-hydroxycyclopentylamino)-8-(2,4,6-trifluorophenylamino)-9H-purin-9-yl)cyclohexanecarboxamide] | > 1000
NC(=O)[C@H]1CC[C@@H](n2c(Nc3c(F)ccc(Cl)c3F)nc3cnc(N[C@H]4CCC[C@@H](O)C4)nc32)CC1 [Example 377, (1R,4s)-4-(8-(3-chloro-2,6-difluorophenylamino)-2-((1S,3R)-3-hydroxycyclohexylamino)-9H-purin-9-yl)cyclohexanecarboxamide] | > 1000

Results, then the molecule that gave them:

IC50 [nM] | SMILES
500 to 1000 | NC(=O)[C@H]1CC[C@@H](n2c(Nc3c(Cl)cc(Cl)cc3Cl)nc3cnc(NC4CCCC4)nc32)CC1 [Example 68, (1s,4s)-4-(2-(cyclopentylamino)-8-(2,4,6-trichlorophenylamino)-9H-purin-9-yl)cyclohexanecarboxamide]
> 1000 | CC1(C)CC[C@@H](Nc2ncc3nc(Nc4c(F)ccc(Cl)c4F)n([C@H]4CC[C@@H](C(N)=O)CC4)c3n2)C[C@H]1O [Example 390, (1S,4s)-4-(8-(3-chloro-2,6-difluorophenylamino)-2-((1R,3R)-3-hydroxy-4,4-dimethylcyclohexylamino)-9H-purin-9-yl)cyclohexanecarboxamide]
> 1000 | NC(=O)[C@H]1CC[C@@H](n2c(Nc3c(F)cc(F)cc3Cl)nc3cnc(N[C@@H]4CC[C@@H](O)C4)nc32)CC1 [Example 210, (1S,4s)-4-(8-(2-chloro-4,6-difluorophenylamino)-2-((1R,3R)-3-hydroxycyclopentylamino)-9H-purin-9-yl)cyclohexanecarboxamide]
< 250 | NC(=O)[C@H]1CC[C@@H](n2c(Nc3c(F)cc(F)cc3Cl)nc3cnc(NC4CCC(F)(F)CC4)nc32)CC1 [Example 185, (1s,4s)-4-(8-(2-chloro-4,6-difluorophenylamino)-2-(4,4-difluorocyclohexylamino)-9H-purin-9-yl)cyclohexanecarboxamide]
> 1000 | NC(=O)[C@H]1CC[C@@H](n2c(Nc3c(Cl)cc(Cl)cc3Cl)nc3cnc(NCC4(CO)CC4)nc32)CC1 [Example 205, (1s,4s)-4-(2-((1-(hydroxymethyl)cyclopropyl)methylami-no)-8-(2,4,6-trichlorophenylamino)-9H-purin-9-yl)cyclohexanecarboxamide]
< 250 | N#Cc1cc(F)c(Nc2nc3cnc(NC4CCOCC4)nc3n2[C@H]2CC[C@@H](C(N)=O)CC2)c(Cl)c1 [Example 308, (1s,4s)-4-(8-(2-chloro-4-cyano-6-fluorophenylamino)-2-(tetrahydro-2H-pyran-4-ylamino)-9H-purin-9-yl)cyclohexanecarboxamide]

same assay, conditions: Homo sapiens; Lox-IMVI anti-proliferative assay, IC50 activity level; read-out: Activity

IC50 [nM] | SMILES
< 250 | NC(=O)[C@H]1CC[C@@H](n2c(Nc3c(F)cc(Cl)cc3F)nc3cnc(N[C@@H]4CCC(F)(F)C4)nc32)CC1 [Example 588, (1S,4s)-4-(8-(4-chloro-2,6-difluorophenylamino)-2-((R)-3,3-difluorocyclopentylamino)-9H-purin-9-yl)cyclohexanecarboxamide]
250 to 500 | NC(=O)[C@H]1CC[C@@H](n2c(Nc3c(F)cc(F)cc3Cl)nc3cnc(NC4CCCOCC4)nc32)CC1 (stereo partly drawn) [Example 538, (1s,4s)-4-(8-(2-chloro-4,6-difluorophenylamino)-2-(oxepan-4-ylamino)-9H-purin-9-yl)cyclohexanecarboxamide]
> 1000 | N#Cc1cc(F)c(Nc2nc3cnc(N[C@@H]4CCOC4)nc3n2[C@H]2CC[C@@H](C(N)=O)CC2)c(F)c1 [Example 529, (1S,4s)-4-(8-(4-cyano-2,6-difluorophenylamino)-2-((R)-tetrahydrofuran-3-ylamino)-9H-purin-9-yl)cyclohexanecarboxamide]
> 1000 | COC(=O)N1CCCC(Nc2ncc3nc(Nc4c(F)cccc4F)n([C@H]4CC[C@@H](C(N)=O)CC4)c3n2)C1 (stereo partly drawn) [Example 404, (R)-methyl 3-(9-((1s,4S)-4-carbamoylcyclohexyl)-8-(2,6-difluorophenylamino)-9H-purin-2-ylamino)piperidine-1-carboxylate]

same assay, conditions: Homo sapiens; Lox-IMVI melanoma cell line, anti-proliferative assay; read-out: Activity (IC50 activity level)

SMILES | IC50 [nM]
NC(=O)[C@H]1CC[C@@H](n2c(Nc3c(F)cc(Cl)cc3F)nc3cnc(NC[C@@H]4CCCC[C@@H]4O)nc32)CC1 [Example 657, (1R,4s)-4-(8-(4-chloro-2,6-difluorophenylamino)-2-(((1S,2S)-2-hydroxycyclohexyl)methylamino)-9H-purin-9-yl)cyclohexanecarboxamide] | > 1000
NC(=O)[C@H]1CC[C@@H](n2c(Nc3c(F)cc(F)cc3F)nc3cnc(N[C@@H]4CCCN(c5ccccc5)C4)nc32)CC1 [Example 746, (1S,4s)-4-(2-((R)-1-phenylpiperidin-3-ylamino)-8-(2,4,6-trifluorophenylamino)-9H-purin-9-yl)cyclohexanecarboxamide] | > 1000

Results, then the molecule that gave them:

IC50 [nM] | SMILES
> 1000 | CCN1CCC[C@@H](Nc2ncc3nc(Nc4c(Cl)cc(Cl)cc4Cl)n([C@H]4CC[C@@H](C(N)=O)CC4)c3n2)C1 [Example 732, (1S,4s)-4-(2-((R)-1-ethylpiperidin-3-ylamino)-8-(2,4,6-trichlorophenylamino)-9H-purin-9-yl)cyclohexanecarboxamide]
< 250 | C[C@]1(C(N)=O)CC[C@@H](n2c(Nc3c(F)cc(Cl)cc3F)nc3cnc(NC4CCC4)nc32)CC1 [Example 608, (1s,4s)-4-(8-(4-chloro-2,6-difluorophenylamino)-2-(cyclobutylamino)-9H-purin-9-yl)-1-methylcyclohexanecarboxamide]
< 250 | C[C@]1(C(N)=O)CC[C@@H](n2c(Nc3c(Cl)cc(C#N)cc3Cl)nc3cnc(NC4CCC4)nc32)CC1 [Example 599, (1s,4s)-4-(2-(cyclobutylamino)-8-(2,6-dichloro-4-cyanophenylamino)-9H-purin-9-yl)-1-methylcyclohexanecarboxamide]
